From ChEMBL document CHEMBL1201862, “PubChem BioAssay data set” (2004)
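Grown in 96-well plates, cells were treated for 48 hours with each compound at five concentrations. Insufficient inhibition: endpoint recorded as highest concentration tested. The concentration for 50% growth inhibition is given as GI50.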 Activity calls are given as the source filed them. Cut-off read from the data, not from the text of the source: active = GI50 up to about 1.1 µM and inactive = higher.

How the values were obtained:
Test in all cases: NCI-60 cell line screen, 48 h
786-0 = system: 786-0
A498 = system: A498
A549 = system: A549
ACHN = system: ACHN
BT-549 = system: BT-549
CAKI-1 = system: CAKI-1
CCRF-CEM = system: CCRF-CEM
COLO 205 = system: COLO 205
DU-145 = system: DU-145
EKVX = system: EKVX
HCC 2998 = system: HCC 2998
HCT-116 = system: HCT-116
HCT-15 = system: HCT-15
HL-60 = system: HL-60
HOP-62 = system: HOP-62
HOP-92 = system: HOP-92
HT-29 = system: HT-29
Hs-578T = system: Hs-578T
IGROV-1 = system: IGROV-1
K562 = system: K562
KM12 = system: KM12
LOX IMVI = system: LOX IMVI
M14 = system: M14
MCF7 = system: MCF7
MDA-MB-231 = system: MDA-MB-231
MDA-MB-435 = system: MDA-MB-435
MDA-N = system: MDA-N
MOLT-4 = system: MOLT-4
Malme-3M = system: Malme-3M
NCI-H226 = system: NCI-H226
NCI-H23 = system: NCI-H23
NCI-H460 = system: NCI-H460
NCI-H522 = system: NCI-H522
OVCAR-3 = system: OVCAR-3
OVCAR-4 = system: OVCAR-4
OVCAR-5 = system: OVCAR-5
OVCAR-8 = system: OVCAR-8
PC-3 = system: PC-3
RPMI-8226 = system: RPMI-8226
SF-268 = system: SF-268
SF-295 = system: SF-295
SF-539 = system: SF-539
SK-MEL-28 = system: SK-MEL-28
SK-MEL-2 = system: SK-MEL-2
SK-MEL-5 = system: SK-MEL-5
SK-OV-3 = system: SK-OV-3
SN12C = system: SN12C
SNB-19 = system: SNB-19
SNB-75 = system: SNB-75
SR = system: SR
SW-620 = system: SW-620
T47D = system: T47D
TK-10 = system: TK-10
U-251 = system: U-251
UACC-257 = system: UACC-257
UACC-62 = system: UACC-62
UO-31 = system: UO-31
NCI/ADR-RES = system: NCI/ADR-RES
RXF 393 = system: RXF 393

## Cc1cccc(O)c1-c1nnc(CCCCCCCCc2nnc(-c3c(C)cccc3O)n2N)n1N
786-0
  GI50: 2.67 µM (inactive)
A498
  GI50: > 100 µM (inactive)
A549
  GI50: > 46.5 µM (inactive)
ACHN
  GI50: > 85.7 µM (inactive)
BT-549
  GI50: 15 µM (inactive)
CAKI-1
  GI50: > 100 µM (inactive)
CCRF-CEM
  GI50: 0.929 µM (active)
COLO 205
  GI50: > 31.6 µM (inactive)
DU-145
  GI50: > 100 µM (inactive)
EKVX
  GI50: > 67.3 µM (inactive)
HCC 2998
  GI50: > 100 µM (inactive)
HCT-116
  GI50: 72.3 µM (inactive)
HCT-15
  GI50: > 100 µM
HL-60
  GI50: 0.139 µM (active)
HOP-62
  GI50: 27.6 µM (inactive)
HOP-92
  GI50: 18 µM (inactive)
HT-29
  GI50: > 100 µM (inactive)
Hs-578T
  GI50: 39.9 µM (inactive)
IGROV-1
  GI50: > 100 µM (inactive)
K562
  GI50: > 100 µM (inactive)
KM12
  GI50: 95.1 µM (inactive)
LOX IMVI
  GI50: 45.2 µM (inactive)
M14
  GI50: > 39.7 µM (inactive)
MCF7
  GI50: 55 µM (inactive)
MDA-MB-231
  GI50: > 62.2 µM (inactive)
MDA-MB-435
  GI50: > 69.5 µM (inactive)
MDA-N
  GI50: > 64.6 µM (inactive)
MOLT-4
  GI50: 8.41 µM (inactive)
Malme-3M
  GI50: > 85.3 µM (inactive)
NCI-H226
  GI50: 55.7 µM (inactive)
NCI-H23
  GI50: 48.6 µM (inactive)
NCI-H460
  GI50: 24.3 µM (inactive)
NCI-H522
  GI50: 1.07 µM (active)
OVCAR-3
  GI50: 50.5 µM (inactive)
OVCAR-4
  GI50: 18.7 µM (inactive)
OVCAR-5
  GI50: > 100 µM (inactive)
OVCAR-8
  GI50: 1.86 µM (inactive)
PC-3
  GI50: > 100 µM (inactive)
RPMI-8226
  GI50: > 100 µM (inactive)
SF-268
  GI50: 51.3 µM (inactive)
SF-295
  GI50: 51.6 µM (inactive)
SF-539
  GI50: > 96.4 µM (inactive)
SK-MEL-28
  GI50: > 50.2 µM (inactive)
SK-MEL-2
  GI50: 38.3 µM (inactive)
SK-MEL-5
  GI50: > 100 µM (inactive)
SK-OV-3
  GI50: > 60.5 µM (inactive)
SN12C
  GI50: > 100 µM (inactive)
SNB-19
  GI50: 41.2 µM (inactive)
SNB-75
  GI50: 25 µM (inactive)
SR
  GI50: 19.1 µM (inactive)
SW-620
  GI50: > 100 µM (inactive)
T47D
  GI50: > 100 µM (inactive)
TK-10
  GI50: > 41.4 µM (inactive)
U-251
  GI50: 23.2 µM (inactive)
UACC-257
  GI50: > 100 µM (inactive)
UACC-62
  GI50: 66.7 µM (inactive)
UO-31
  GI50: 68.5 µM (inactive)

## CN1CCN(CCCBr)CC1
786-0
  GI50: > 100 µM (inactive)
A498
  GI50: > 100 µM (inactive)
A549
  GI50: > 100 µM (inactive)
ACHN
  GI50: > 100 µM (inactive)
BT-549
  GI50: > 100 µM (inactive)
CCRF-CEM
  GI50: > 100 µM (inactive)
COLO 205
  GI50: > 100 µM (inactive)
DU-145
  GI50: > 100 µM (inactive)
EKVX
  GI50: > 100 µM (inactive)
HCT-116
  GI50: > 100 µM (inactive)
HCT-15
  GI50: > 100 µM
HL-60
  GI50: > 100 µM (inactive)
HOP-62
  GI50: > 100 µM (inactive)
HOP-92
  GI50: > 100 µM (inactive)
HT-29
  GI50: > 100 µM (inactive)
Hs-578T
  GI50: > 100 µM (inactive)
IGROV-1
  GI50: > 100 µM (inactive)
K562
  GI50: > 100 µM (inactive)
KM12
  GI50: > 100 µM (inactive)
LOX IMVI
  GI50: > 100 µM (inactive)
M14
  GI50: > 100 µM (inactive)
MCF7
  GI50: > 100 µM (inactive)
MDA-MB-231
  GI50: > 100 µM (inactive)
MDA-MB-435
  GI50: > 100 µM (inactive)
MDA-N
  GI50: > 100 µM (inactive)
Malme-3M
  GI50: > 100 µM (inactive)
NCI-H226
  GI50: > 100 µM (inactive)
NCI-H23
  GI50: > 100 µM (inactive)
NCI-H460
  GI50: > 100 µM (inactive)
NCI-H522
  GI50: > 100 µM (inactive)
NCI/ADR-RES
  GI50: > 100 µM (inactive)
OVCAR-3
  GI50: > 100 µM (inactive)
OVCAR-4
  GI50: > 100 µM (inactive)
OVCAR-5
  GI50: > 100 µM (inactive)
OVCAR-8
  GI50: > 100 µM (inactive)
PC-3
  GI50: > 100 µM (inactive)
RPMI-8226
  GI50: > 100 µM (inactive)
RXF 393
  GI50: > 100 µM (inactive)
SF-268
  GI50: > 100 µM (inactive)
SF-295
  GI50: > 100 µM (inactive)
SF-539
  GI50: > 100 µM (inactive)
SK-MEL-28
  GI50: > 100 µM (inactive)
SK-MEL-2
  GI50: > 100 µM (inactive)
SK-MEL-5
  GI50: > 100 µM (inactive)
SK-OV-3
  GI50: > 100 µM (inactive)
SN12C
  GI50: > 100 µM (inactive)
SNB-19
  GI50: > 100 µM (inactive)
SNB-75
  GI50: > 100 µM (inactive)
SW-620
  GI50: > 100 µM (inactive)
T47D
  GI50: > 100 µM (inactive)
TK-10
  GI50: > 100 µM (inactive)
U-251
  GI50: > 100 µM (inactive)
UACC-257
  GI50: > 100 µM (inactive)
UACC-62
  GI50: > 100 µM (inactive)
UO-31
  GI50: > 100 µM (inactive)
